The test system of the experiment is T1, Wld^S.
T1 construct: gene Nmnat1; full-length Wld^S ORF (1119 bp): N-terminal Ube4b fragment fused to NMNAT1; predicted mass 44001 Da; with Ubiquitin conjugation factor E4 B
As to the kind of experiment: C18-HPLC of NAD formed, nonlinear fit. Type of experiment: biochemical, Mus musculus. To be noted: HEPES/KOH pH 7.5, MgCl2, 37°C. From the text: C18-HPLC of NAD formed, nonlinear fit on Wld^S

Like-named read-outs stand apart in the source and are kept apart here.

Turning to `NC(=O)c1ccc[n+]([C@@H]2O[C@H](COP(=O)(O)O)[C@@H](O)[C@H]2O)c1` [NMN], the Km (co-substrate ATP, NMN 5–100 µM, read-out: NMN / K m) was determined as 32.2 ± 1.2 µM.

Consider `Nc1ncnc2c1ncn2[C@@H]1O[C@H](COP(=O)(O)OP(=O)(O)OP(=O)(O)O)[C@@H](O)[C@H]1O` [ATP], for which the Km (read-out: ATP / K m, co-substrate NMN, ATP 25–175 µM) was 29.6 ± 1.8 µM.

The record behind these values is article PMC3534050, “Simultaneous Single-Sample Determination of NMNAT Isozyme Activities in Mouse Tissues” (PLoS ONE, 2012).
